Patent US8420865B2, “Phosphine compound, process for producing the same, and peroxide scavenger using the same” (Fukuoka University, priority 2008, dated 2013)

Tests used:
[1] = Oxidation of MitoDPPP with hydrogen peroxide in dimethylsulfoxide solution, fluorescence intensity over time; conditions: MitoDPPP 16 μM in dimethylsulfoxide, 10 mM H2O2, 10 minutes, FIG. 1
Method: The time scale changes in fluorescence intensity were monitored for the oxidation with hydrogen peroxide of [3-(4-Phenoxyphenylphosphinopyrenylphosphino)propyl]triphenylphosphonium iodide [Ia] (MitoDPPP) obtained in EXAMPLE 1.
After 10 mM H2O2 was added dropwise to a dimethylsulfoxide solution of MitoDPPP (16 μM), fluorescence intensities at the fluorescence wavelength of 380 nm were measured for 10 minutes.

[2] = test system: HepG2 cells; test: Loading of MitoDPPP into HepG2 cells, fluorescence microscopy, comparison with Mito Tracker Green FM; format: cell-based; conditions: fluorescence microscope, comparison/double-staining with mitochondria-selective fluorescent dye, FIG. 2
Method: Loading of MitoDPPP into HepG2 cells was examined. A 20% dimethylsulfoxide solution of MitoDPPP (16 μM) was prepared and the solution was loaded into HepG2 cells for 10 minutes to stain the cells. After washing with PBS, the cells were observed under a fluorescence microscope.

[3] = test system: HepG2 cells; test: Loading into HepG2 cells and oxidation stimulated with tert-butoxyhydroperoxide (tBHP), fluorescence microscopy; format: cell-based; conditions: MitoDPPP 16 μM loaded 2 minutes, ten minutes after tBHP, FIG. 3
Method: Loading of MitoDPPP into HepG2 cells and oxidation stimulated with tert-butoxyhydroperoxide (tBHP) were monitored. A 0.1% dimethylsulfoxide solution of MitoDPPP (16 μM) was prepared. The solution was loaded into HepG2 cells for 2 minutes to stain the cells. The cells were washed with PBS and observed under a fluorescence microscope. Next, tert-butoxyhydroperoxide (tBHP) was added to the cells. Ten minutes later, the cells were observed under the fluorescence microscope.

[4] = test system: HepG2 cells; test: Oxidation of MitoDPPP loaded into HepG2 cells, hydrogen peroxide compared with tBHP, microplate reader; format: cell-based; conditions: MitoDPPP 16 μM loaded 10 minutes, FIG. 4
Method: The oxidation of MitoDPPP loaded into HepG2 cells was compared for hydrogen peroxide and tBHP. A 0.1% dimethylsulfoxide solution of MitoDPPP (16 μM) was prepared. The solution was loaded into HepG2 cells for 10 minutes. After washing the cells with PBS, hydrogen peroxide was added to the cells and the increase in fluorescence intensity was monitored on a microplate reader.

[5] = Oxidation of MitoDPPP in an aqueous solution with hydrogen peroxide and tBHP; conditions: FIG. 4

SMILES: [I-].c1ccc(Oc2ccc(P(CCC[P+](c3ccccc3)(c3ccccc3)c3ccccc3)c3ccc4ccc5cccc6ccc3c4c56)cc2)cc1 (stereo not drawn) [MitoDPPP]
- fluorescence intensity at the fluorescence wavelength of 380 nm on oxidation with hydrogen peroxide [1]: increase in the fluorescence intensity
- localization in cells [2]: localized in mitochondria
- brightness of stained cells after tBHP loading compared to before [3]: increased
- oxidation with hydrogen peroxide of MitoDPPP loaded into HepG2 cells [4]: not oxidized
- oxidation with hydrogen peroxide in an aqueous solution ([5]; hydrogen peroxide): proceeds rapidly
- oxidation with tBHP in an aqueous solution ([5]; tBHP): proceeds rapidly
